The target in data set [1] is T1, LCK (Homo sapiens, UniProt P06239).
T1 construct: purchased Carna Biosciences, Inc
The experiment in a line: Off-chip Mobility Shift Assay, kinase inhibition. In kind it is biochemical. To be noted: recombinant LCK; for inhibition at 0.001 µM: at 1 nM; for inhibition at 0.01 µM: at 10 nM.

Data set [2] deals with T2, FMS (Homo sapiens, UniProt P07333).
T2 construct: purchased Carna Biosciences, Inc
The experiment in a line: Off-chip Mobility Shift Assay, kinase inhibition. To be noted: at 10 nM; recombinant FMS. In kind it is biochemical.

Data set [3] concerns the target T3, BTK (Homo sapiens, UniProt Q06187).
T3 construct: purchased Carna Biosciences, Inc
The experiment in a line: Off-chip Mobility Shift Assay, kinase inhibition. In kind it is biochemical. To be noted: recombinant BTK; for inhibition at 0.001 µM: at 1 nM; for inhibition at 0.01 µM: at 10 nM.

Data set [4] is described as follows: Metabolic stability in human liver microsomes. The data set is classed as in vitro ADME. To be noted: for metabolic stability compared to dasatinib: human liver microsomes; for In vitro t1/2: 1 μM, human liver microsomes 0.5 mg/mL, NADPH and UDPGA, 37° C. The procedure:
FIG. 1. Metabolic stability of compounds in human liver microsomal incubations. […] Concentrations at specified times were determined by LC-MS/MS.
The incubation reactions at various time points were quenched by adding 2× volumes of acetonitrile containing 100 nM reserpine. The quenched incubation samples were centrifuged at 4000 RPM for 10 min, and the supernatants injected for LC/MS/MS analysis. LC/MS/MS analysis was carried out on a AB Sciex 4000 Q Trap LC/MS/MS system coupled with Shimadzu Prominence UFLCXR 20 series (including a CBM-20A controller, two LC-20ADXR solvent delivery units, SIL-20AC HT autosampler, CTO-20A column oven, and a SPD-20A UV detector).
A general note: Liver microsomes are vesicles of endoplasmic reticulum, rich in cytochrome P450 enzymes.

Data set [5] has as its target T4, EPHA1 (Homo sapiens, UniProt P21709).
T4 construct: purchased Carna Biosciences, Inc
T4 sequence (P21709 26-976): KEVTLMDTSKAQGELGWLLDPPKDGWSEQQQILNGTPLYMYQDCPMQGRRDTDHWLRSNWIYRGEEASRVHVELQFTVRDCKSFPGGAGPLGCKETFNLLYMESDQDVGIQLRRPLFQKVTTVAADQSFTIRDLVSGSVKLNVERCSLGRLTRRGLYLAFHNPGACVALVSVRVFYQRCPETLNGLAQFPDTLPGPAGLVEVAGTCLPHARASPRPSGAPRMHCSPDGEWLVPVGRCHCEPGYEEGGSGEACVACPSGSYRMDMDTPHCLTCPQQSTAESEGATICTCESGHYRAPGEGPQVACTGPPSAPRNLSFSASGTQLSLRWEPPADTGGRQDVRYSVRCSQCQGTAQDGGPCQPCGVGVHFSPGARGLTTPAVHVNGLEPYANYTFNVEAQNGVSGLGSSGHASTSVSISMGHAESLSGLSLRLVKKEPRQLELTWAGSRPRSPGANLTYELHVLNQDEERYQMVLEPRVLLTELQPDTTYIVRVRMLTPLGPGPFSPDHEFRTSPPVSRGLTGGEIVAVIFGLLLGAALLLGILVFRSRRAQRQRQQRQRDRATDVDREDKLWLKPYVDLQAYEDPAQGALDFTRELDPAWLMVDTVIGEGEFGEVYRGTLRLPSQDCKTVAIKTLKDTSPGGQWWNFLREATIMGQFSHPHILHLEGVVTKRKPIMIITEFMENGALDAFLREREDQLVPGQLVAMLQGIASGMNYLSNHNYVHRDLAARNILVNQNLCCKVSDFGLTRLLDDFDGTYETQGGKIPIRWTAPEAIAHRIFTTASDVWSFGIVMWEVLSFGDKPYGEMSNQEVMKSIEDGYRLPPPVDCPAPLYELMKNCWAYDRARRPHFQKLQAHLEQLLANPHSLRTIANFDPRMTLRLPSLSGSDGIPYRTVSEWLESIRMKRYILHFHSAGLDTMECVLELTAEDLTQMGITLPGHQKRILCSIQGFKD
Kind of data set: Off-chip Mobility Shift Assay, kinase inhibition. The data set is classed as biochemical. To be noted: at 10 nM; recombinant EPHA1.

Data set [6] addresses T5, TEC (Homo sapiens, UniProt P42680).
T5 construct: purchased Carna Biosciences, Inc
T5 sequence (P42680 1-631): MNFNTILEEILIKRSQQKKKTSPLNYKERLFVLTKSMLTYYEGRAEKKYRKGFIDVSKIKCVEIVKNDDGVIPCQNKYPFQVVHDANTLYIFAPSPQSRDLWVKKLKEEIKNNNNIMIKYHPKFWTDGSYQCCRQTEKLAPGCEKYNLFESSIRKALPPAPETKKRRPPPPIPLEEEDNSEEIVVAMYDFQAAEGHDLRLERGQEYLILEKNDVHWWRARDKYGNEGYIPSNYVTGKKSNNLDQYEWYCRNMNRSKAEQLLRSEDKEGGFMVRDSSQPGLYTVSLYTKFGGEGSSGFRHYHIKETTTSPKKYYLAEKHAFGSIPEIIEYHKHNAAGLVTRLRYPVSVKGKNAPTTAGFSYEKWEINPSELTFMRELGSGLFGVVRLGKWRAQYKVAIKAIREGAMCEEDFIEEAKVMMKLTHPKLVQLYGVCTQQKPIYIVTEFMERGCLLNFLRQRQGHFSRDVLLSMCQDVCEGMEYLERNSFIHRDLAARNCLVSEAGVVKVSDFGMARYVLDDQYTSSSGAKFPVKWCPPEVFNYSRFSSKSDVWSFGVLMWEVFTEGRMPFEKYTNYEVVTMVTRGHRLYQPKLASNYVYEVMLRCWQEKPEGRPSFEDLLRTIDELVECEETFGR
Kind of data set: Off-chip Mobility Shift Assay, kinase inhibition. The data set is classed as biochemical. Particulars: at 1 nM; recombinant TEC.

Data set [7] concerns the target T6, BMX (Homo sapiens, UniProt P51813).
T6 construct: purchased Carna Biosciences, Inc
T6 sequence (P51813 1-675): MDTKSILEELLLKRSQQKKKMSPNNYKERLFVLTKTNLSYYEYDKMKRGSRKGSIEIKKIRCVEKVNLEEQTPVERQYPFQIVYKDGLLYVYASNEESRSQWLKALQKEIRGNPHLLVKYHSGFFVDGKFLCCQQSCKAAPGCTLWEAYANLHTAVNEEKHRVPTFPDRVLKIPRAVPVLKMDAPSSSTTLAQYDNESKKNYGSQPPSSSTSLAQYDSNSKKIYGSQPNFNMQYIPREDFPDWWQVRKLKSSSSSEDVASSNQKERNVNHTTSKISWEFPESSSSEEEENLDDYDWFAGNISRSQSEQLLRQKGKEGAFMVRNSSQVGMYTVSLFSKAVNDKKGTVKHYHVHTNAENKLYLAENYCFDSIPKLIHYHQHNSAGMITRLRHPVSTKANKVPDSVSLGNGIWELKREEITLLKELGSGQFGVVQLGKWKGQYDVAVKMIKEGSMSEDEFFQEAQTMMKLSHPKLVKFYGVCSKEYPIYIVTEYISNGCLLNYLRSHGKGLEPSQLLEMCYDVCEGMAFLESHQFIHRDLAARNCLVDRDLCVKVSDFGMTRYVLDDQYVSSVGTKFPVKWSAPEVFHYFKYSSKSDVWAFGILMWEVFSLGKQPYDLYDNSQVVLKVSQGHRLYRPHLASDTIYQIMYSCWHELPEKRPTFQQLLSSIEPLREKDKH
Kind of data set: Off-chip Mobility Shift Assay, kinase inhibition. In kind it is biochemical. Particulars: recombinant BMX; for inhibition at 0.001 µM: at 1 nM; for inhibition at 0.01 µM: at 10 nM.

T1 sequence (P06239 whole entry): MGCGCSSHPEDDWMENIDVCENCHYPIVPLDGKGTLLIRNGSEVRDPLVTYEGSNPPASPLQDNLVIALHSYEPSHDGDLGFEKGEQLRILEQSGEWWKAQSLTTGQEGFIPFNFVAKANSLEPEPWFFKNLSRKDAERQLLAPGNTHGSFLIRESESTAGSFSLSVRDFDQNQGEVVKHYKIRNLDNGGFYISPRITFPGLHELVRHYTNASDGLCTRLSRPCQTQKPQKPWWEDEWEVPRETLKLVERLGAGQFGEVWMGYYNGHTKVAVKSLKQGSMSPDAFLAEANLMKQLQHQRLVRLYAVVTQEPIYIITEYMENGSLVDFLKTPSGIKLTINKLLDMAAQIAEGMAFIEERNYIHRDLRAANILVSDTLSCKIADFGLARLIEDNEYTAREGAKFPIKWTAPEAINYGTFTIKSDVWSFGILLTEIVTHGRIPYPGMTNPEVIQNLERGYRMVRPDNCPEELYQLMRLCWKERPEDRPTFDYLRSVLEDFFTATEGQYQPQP
T3 sequence (Q06187 whole entry): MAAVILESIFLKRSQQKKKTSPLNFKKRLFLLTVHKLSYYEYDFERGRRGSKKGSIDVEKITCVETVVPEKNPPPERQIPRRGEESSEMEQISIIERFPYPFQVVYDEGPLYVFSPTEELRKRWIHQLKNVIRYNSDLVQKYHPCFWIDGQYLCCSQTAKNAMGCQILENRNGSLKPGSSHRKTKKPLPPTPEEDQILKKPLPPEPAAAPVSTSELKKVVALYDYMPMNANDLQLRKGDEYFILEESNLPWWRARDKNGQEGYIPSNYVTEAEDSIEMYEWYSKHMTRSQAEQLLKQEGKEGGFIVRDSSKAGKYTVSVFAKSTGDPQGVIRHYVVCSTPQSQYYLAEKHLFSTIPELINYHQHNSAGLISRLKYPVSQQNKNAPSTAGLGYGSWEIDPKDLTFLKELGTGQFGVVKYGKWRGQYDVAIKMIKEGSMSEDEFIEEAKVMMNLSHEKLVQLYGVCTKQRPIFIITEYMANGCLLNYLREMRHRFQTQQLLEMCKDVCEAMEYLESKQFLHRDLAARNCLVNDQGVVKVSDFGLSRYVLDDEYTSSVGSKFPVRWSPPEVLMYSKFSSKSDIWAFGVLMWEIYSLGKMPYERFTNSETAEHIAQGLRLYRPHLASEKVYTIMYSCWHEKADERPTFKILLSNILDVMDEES
T2 sequence (P07333 20-972): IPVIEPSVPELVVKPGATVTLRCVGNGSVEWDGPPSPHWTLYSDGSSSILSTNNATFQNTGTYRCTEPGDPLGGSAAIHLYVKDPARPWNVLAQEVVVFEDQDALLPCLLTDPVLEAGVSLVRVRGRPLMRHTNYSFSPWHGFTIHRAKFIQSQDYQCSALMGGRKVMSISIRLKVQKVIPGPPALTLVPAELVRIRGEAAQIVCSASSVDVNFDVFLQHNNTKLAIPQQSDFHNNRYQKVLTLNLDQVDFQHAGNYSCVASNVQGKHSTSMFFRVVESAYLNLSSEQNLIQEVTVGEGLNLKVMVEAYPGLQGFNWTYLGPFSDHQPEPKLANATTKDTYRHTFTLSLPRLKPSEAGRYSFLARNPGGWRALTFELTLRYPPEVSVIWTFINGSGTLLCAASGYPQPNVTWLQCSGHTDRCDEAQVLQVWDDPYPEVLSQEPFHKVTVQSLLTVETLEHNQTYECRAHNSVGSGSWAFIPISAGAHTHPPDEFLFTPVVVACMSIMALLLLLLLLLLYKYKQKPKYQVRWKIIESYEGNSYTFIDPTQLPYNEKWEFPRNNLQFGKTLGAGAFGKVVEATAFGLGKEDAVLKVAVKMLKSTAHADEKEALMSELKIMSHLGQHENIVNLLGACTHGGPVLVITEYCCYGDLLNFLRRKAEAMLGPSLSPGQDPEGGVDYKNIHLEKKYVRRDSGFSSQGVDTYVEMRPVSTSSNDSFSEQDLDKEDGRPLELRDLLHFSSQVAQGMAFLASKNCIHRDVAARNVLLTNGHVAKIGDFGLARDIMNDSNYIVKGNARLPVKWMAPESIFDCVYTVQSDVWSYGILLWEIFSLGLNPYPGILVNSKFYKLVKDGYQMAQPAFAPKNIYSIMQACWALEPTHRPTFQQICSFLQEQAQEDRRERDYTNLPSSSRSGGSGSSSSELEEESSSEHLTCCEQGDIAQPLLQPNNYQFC

Consider `Cc1nc(Nc2ncc(C(=O)Nc3c(C)cccc3Cl)s2)cc(N2CCCCC2)n1` [Compound VIII, N-(2-chloro-6-methylphenyl)-2-[[2-methyl-6-(piperidin-1-yl)pyrimidin-4-yl]amino]thiazole-5-carboxamide], for which the inhibition at 0.001 µM in data set [1], in data set [3], in data set [6] and in data set [7] was above 50% in each case. The inhibition at 0.01 µM in data set [1], in data set [2], in data set [3], in data set [5] and in data set [7] was above 50% throughout. Also, the “metabolic stability compared to dasatinib” value in data set [4] is given as “significantly greater stability”.
Regarding `Cc1nc(Nc2ncc(C(=O)Nc3c(C)cccc3Cl)s2)cc(N2CC[C@H](O)C2)n1` [Compound X, N-(2-chloro-6-methylphenyl)-2-[[2-methyl-6-((S)-3-hydroxypyrrolidin-1-yl)pyrimidin-4-yl]amino]thiazole-5-carboxamide], the inhibition at 0.001 µM in data set [1], in data set [3], in data set [6] and in data set [7] was above 50% each time. The inhibition at 0.01 µM in data set [1], in data set [2], in data set [3], in data set [5] and in data set [7] was above 50% each time. Moreover, in data set [4], the “In vitro t1/2” value was found to be 1.45 h. Further, the “metabolic stability compared to dasatinib” value in data set [4] is on record as “significantly greater stability”.
Turning to `Cc1nc(Nc2ncc(C(=O)Nc3c(C)cccc3Cl)s2)cc(N2CC[C@@H](O)C2)n1` [Compound XI, N-(2-chloro-6-methylphenyl)-2-[[2-methyl-6-((R)-3-hydroxypyrrolidin-1-yl)pyrimidin-4-yl]amino]thiazole-5-carboxamide], the inhibition at 0.001 µM in data set [1], in data set [3], in data set [6] and in data set [7] was above 50% throughout. Further, the inhibition at 0.01 µM in data set [1], in data set [2], in data set [3], in data set [5] and in data set [7] was above 50% each time. In data set [4], the “In vitro t1/2” value is 0.983 h. Further, in data set [4], the “metabolic stability compared to dasatinib” value was “significantly greater stability”.
With `Cc1nc(Nc2ncc(C(=O)Nc3c(C)cccc3Cl)s2)cc(N2CC[C@H](N)C2)n1` [Compound XII, N-(2-chloro-6-methylphenyl)-2-[[2-methyl-6-((S)-3-aminopyrrolidin-1-yl)pyrimidin-4-yl]amino]thiazole-5-carboxamide], the inhibition at 0.001 µM in data set [1], in data set [3], in data set [6] and in data set [7] was above 50% throughout. For the same molecule, the inhibition at 0.01 µM in data set [1], in data set [2], in data set [3], in data set [5] and in data set [7] was above 50% each time. Moreover, the “metabolic stability compared to dasatinib” value in data set [4] is reported as “significantly greater stability”.
Take `Cc1nc(Nc2ncc(C(=O)Nc3c(C)cccc3Cl)s2)cc(N2CC[C@@H](N)C2)n1` [Compound XIII, N-(2-chloro-6-methylphenyl)-2-[[2-methyl-6-((R)-3-aminopyrrolidin-1-yl)pyrimidin-4-yl]amino]thiazole-5-carboxamide]: the inhibition at 0.001 µM in data set [1], in data set [3], in data set [6] and in data set [7] was above 50% throughout. The inhibition at 0.01 µM in data set [1], in data set [2], in data set [3], in data set [5] and in data set [7] was above 50% in each case. Also, in data set [4], the “metabolic stability compared to dasatinib” value was “significantly greater stability”.

By inhibition is commonly meant the share of the control response that was lost under treatment.
